What was measured:
[1] = test system: China jute (Ab); assay: Test Example 9: crop plant selectivity by upland field foliage treatment (wheat), herbicidal effects; type: in vivo; parameters: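 grade of growth control; 5 = at least 90%; 4 = 70 to 90%; 3 = 50 to 70%; 2 = 30 to 50%; 1 = 10 to 30%; 0 = under 10%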; details: dose 1.6 g ai/10a, 14th day after treatment
In short: (§1)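 Wheat and weeds sown in sand-filled pots, grown 2 weeks in a greenhouse, then foliage-treated. Herbicidal effect and crop phytotoxicity were scored 14 days after treatment against a rating scale.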

[2] = test system: common lambsquarters (Ch); assay: as above; type: in vivo; parameters: scale not given here; details: dose 1.6 g ai/10a, 14th day after treatment
In short: as §1

[3] = test system: slender amaranth (Am); assay: as above; type: in vivo; parameters: scale not given here; details: dose 1.6 g ai/10a, 14th day after treatment
In short: as §1

[4] = test system: pale smartweed (Po); assay: as above; type: in vivo; parameters: scale not given here; details: dose 1.6 g ai/10a, 14th day after treatment
In short: as §1

[5] = test system: common lambsquarters (Ch); assay: Test Example 2: herbicidal effects by upland field soil treatment; type: in vivo; details: 100 g of the active ingredient per 10 ares, evaluated on the 21st day after application;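 further: grade of growth control; 5 = at least 90%; 4 = 70 to 90%; 3 = 50 to 70%; 2 = 30 to 50%; 1 = 10 to 30%; 0 = under 10%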
Text: (§2) (Test on Herbicidal Effects by Upland Field Soil Treatment)

[6] = test system: rice flatsedge (Ci); assay: as above; type: in vivo; details: 100 g of the active ingredient per 10 ares, evaluated on the 21st day after application
Text: as §2

[7] = test system: slender amaranth (Am); assay: as above; type: in vivo; details: 100 g of the active ingredient per 10 ares, evaluated on the 21st day after application
Text: as §2

[8] = test system: Digitaria ciliaris (Di); assay: as above; type: in vivo; details: 100 g of the active ingredient per 10 ares, evaluated on the 21st day after application;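 further: grade of growth control; 5 = at least 90%; 4 = 70 to 90%; 3 = 50 to 70%; 2 = 30 to 50%; 1 = 10 to 30%; 0 = under 10%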
Text: as §2

[9] = test system: pale smartweed (Po); assay: as above; type: in vivo; details: 100 g of the active ingredient per 10 ares, evaluated on the 21st day after application
Text: as §2

[10] = test system: barnyardgrass (Ec); assay: as above; type: in vivo; details: 100 g of the active ingredient per 10 ares, evaluated on the 21st day after application
Text: as §2

[11] = test system: corn (Ze); assay: Test Example 11: crop plant selectivity by upland field foliage treatment (corn), phytotoxicity; details: dose 1.6 g ai/10a
In short: (§3)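 Corn with pale smartweed, slender amaranth, common lambsquarters and China jute sown in sand-filled pots and grown 2 weeks in a greenhouse before foliage treatment. Herbicidal effect and crop phytotoxicity scored on day 14 after treatment against a rating standard.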

[12] = test system: monochoria (Mo); assay: Test Example 1: herbicidal effects by paddy field soil treatment; type: in vivo; details: 100 g of the active ingredient per 10 ares, 21st day after the application, index 0-5 of Table 47;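 further: grade of growth control; 5 = at least 90%; 4 = 70 to 90%; 3 = 50 to 70%; 2 = 30 to 50%; 1 = 10 to 30%; 0 = under 10%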
In short: (§4)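 Scoring of herbicidal effect came 21 days after application of 100 g active ingredient per 10 ares to flooded (3 cm) paddy-soil pots sown with barnyardgrass, monochoria and bulrush, kept in a greenhouse.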

[13] = test system: barnyardgrass (Ec); assay: as above; type: in vivo; details: 100 g of the active ingredient per 10 ares, 21st day after the application, index 0-5 of Table 47
In short: as §4

[14] = test system: bulrush (Sc); assay: as above; type: in vivo; details: 100 g of the active ingredient per 10 ares, 21st day after the application, index 0-5 of Table 47;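 further: grade of growth control; 5 = at least 90%; 4 = 70 to 90%; 3 = 50 to 70%; 2 = 30 to 50%; 1 = 10 to 30%; 0 = under 10%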
In short: as §4

[15] = test system: wheat (Tr); assay: Test Example 9: crop plant selectivity by upland field foliage treatment (wheat), phytotoxicity; details: dose 1.6 g ai/10a, 14th day after treatment
In short: as §1

[16] = test system: China jute (Ab); assay: Test Example 11: crop plant selectivity by upland field foliage treatment (corn), herbicidal effects; type: in vivo; parameters: scale not given here; details: dose 1.6 g ai/10a
In short: as §3

[17] = test system: common lambsquarters (Ch); assay: as above; type: in vivo; parameters: scale not given here; details: dose 1.6 g ai/10a
In short: as §3

[18] = test system: slender amaranth (Am); assay: as above; type: in vivo; parameters: scale not given here; details: dose 1.6 g ai/10a
In short: as §3

[19] = test system: pale smartweed (Po); assay: as above; type: in vivo; parameters: scale not given here; details: dose 1.6 g ai/10a
In short: as §3

[20] = test system: common lambsquarters (Ch); assay: Test Example 3: herbicidal effects by upland field foliage treatment; type: in vivo; parameters: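 grade of growth control; 5 = at least 90%; 4 = 70 to 90%; 3 = 50 to 70%; 2 = 30 to 50%; 1 = 10 to 30%; 0 = under 10%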; details: 100 g active ingredient per 10 ares, evaluated 14th day after treatment
In short: (§5)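 Readout: visual herbicidal rating per defined standards, 14th day after treatment. Plants sown in sand (pot area 120 cm^2), soil-covered, greenhouse-cultured for 2 weeks prior to foliage application, then greenhouse-grown until scoring.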

[21] = test system: Diaitaria ciliaris (Di); assay: as above; type: in vivo; parameters: scale not given here; details: 100 g active ingredient per 10 ares, evaluated 14th day after treatment
In short: as §5

[22] = test system: rice flatsedge (Ci); assay: as above; type: in vivo; parameters: scale not given here; details: 100 g active ingredient per 10 ares, evaluated 14th day after treatment
In short: as §5

[23] = test system: slender amaranth (Am); assay: as above; type: in vivo; parameters: scale not given here; details: 100 g active ingredient per 10 ares, evaluated 14th day after treatment
In short: as §5

[24] = test system: pale smartweed (Po); assay: as above; type: in vivo; parameters: scale not given here; details: 100 g active ingredient per 10 ares, evaluated 14th day after treatment
In short: as §5

[25] = test system: barnyardgrass (Ec); assay: as above; type: in vivo; parameters: scale not given here; details: 100 g active ingredient per 10 ares, evaluated 14th day after treatment
In short: as §5

[26] = upland field foliage treatment (corn test), 14th day after treatment

| Structure (SMILES) | Herbicidal effects Ab [1] | Herbicidal effects Ch [2] | Herbicidal effects Am [3] | Herbicidal effects Po [4] | Herbicidal effects Ch [5] | Herbicidal effects Ci [6] | Herbicidal effects Am [7] | Herbicidal effects Di [8] | Herbicidal effects Po [9] | Herbicidal effects Ec [10] | Herbicidal effects Mo [12] | Herbicidal effects Ec [13] | Herbicidal effects Sc [14] | Phytotoxicity Tr [15] | Herbicidal effects Ch [20] | Herbicidal effects Di [21] | Herbicidal effects Ci [22] | Herbicidal effects Am [23] | Herbicidal effects Po [24] | Herbicidal effects Ec [25] | also measured |
| --- | --- | --- | --- | --- | --- | --- | --- | --- | --- | --- | --- | --- | --- | --- | --- | --- | --- | --- | --- | --- | --- |
| Cn1c(C(F)(F)F)ccc(-c2cc3c(cc2F)sc(=O)n3C)c1=O [Compound 3-6] | 5 | 5 | 5 | 5 | 5 | 5 | 5 | 5 | 5 | 5 | 5 | 5 | 5 | 2 | 5 | 5 | 5 | 5 | 5 | 5 | Phytotoxicity Ze ([11]; upland field foliage treatment, 14th day after treatment): 2; Herbicidal effects Ab [16, 26]: 5; Herbicidal effects Ch [17, 26]: 5; Herbicidal effects Am [18, 26]: 5; Herbicidal effects Po [19, 26]: 5 |
| CCCc1cc2c(Cl)cc(F)c(-c3ccc(C(F)(F)F)n(C)c3=O)c2o1 [Compound 5-3] | 5 | 5 | 5 | 5 | 5 | 5 | 5 | 5 | 5 | 5 | 5 | 5 | 5 | 1 | 5 | 5 | 5 | 5 | 5 | 5 | Phytotoxicity Ze ([11]; corn, foliage treatment, evaluated on 14th day after treatment, index per Table 47): 2; Herbicidal effects Ab ([16]; China jute, foliage treatment, evaluated on 14th day after treatment, index per Table 47): 5; Herbicidal effects Ch ([17]; common lambsquarters, foliage treatment, evaluated on 14th day after treatment, index per Table 47): 5; Herbicidal effects Am ([18]; slender amaranth, foliage treatment, evaluated on 14th day after treatment, index per Table 47): 5; Herbicidal effects Po ([19]; pale smartweed, foliage treatment, evaluated on 14th day after treatment, index per Table 47): 5 |
